Results: publication PMC5779714, “Metallochaperone UreG serves as a new target for design of urease inhibitor: A novel strategy for development of antimicrobials” (PLoS Biology, 2018)

Molecular target: UreG (Helicobacter pylori, UniProt Q09066)
Assay: Nickel binding of UreG (UV absorption at 337 nm) in presence of compounds
Parameters: species or system H. pylori
Conditions: for percentage of Ni(II)-bound UreG: UreG 5 μM
Protocol: We further investigated whether binding of cmpd4 or cmpd8 to the guanine nucleotide binding pocket perturbed the Ni(II) coordination to the protein. Considering that coordination of Ni(II) to UreG results in a (Cys)→Ni(II) LMCT band centered at about 337 nm, we monitored the UV absorption of UreG samples (5 μM) at 337 nm upon titration of nickel with or without the supplement of cmpd4 or cmpd8. As shown in S19 Fig, cmpd4 at a ratio of [cmpd4]/[UreG] of 5 and 10 reduced the percentages of Ni(II)-bound UreG to ca. 75% and 30%, respectively, and a similar phenomenon was also observed for cmpd8 (S19 Fig), indicative of the disruption of nickel binding property of UreG through targeting nucleotide binding site.
Supplementary file pbio.2003887.s021.png: S19 Fig Effect of cmpd4 and cmpd8 on nickel binding property of UreG. UreG (5 μM) in HEPES buffer (5 μM GTP, 1 mM MgSO4) was titrated with NiSO4 in the presence of cmpd4 or cmpd8 at various concentrations. Titration of nickel ion into UreG samples led to the increasing of absorption at 337 nm, the highest of which was set as 100% for the percentage of Ni-bound UreG. The supplement of cmpd4 and cmpd8 reduced the percentage of Ni-bound UreG. […] (PNG) Click here for additional data file.

UreG, sequence (Q09066 whole entry): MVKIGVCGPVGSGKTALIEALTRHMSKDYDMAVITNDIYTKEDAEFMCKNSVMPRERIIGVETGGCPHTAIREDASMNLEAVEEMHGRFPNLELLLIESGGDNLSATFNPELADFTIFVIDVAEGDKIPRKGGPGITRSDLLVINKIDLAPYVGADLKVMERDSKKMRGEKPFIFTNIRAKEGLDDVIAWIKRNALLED

Structure (SMILES)	percentage of Ni(II)-bound UreG ([cmpd4]/[UreG] of 5)	percentage of Ni(II)-bound UreG ([cmpd4]/[UreG] of 10) [%]	absorption at 337 nm ([compound]/[UreG] 5, Ni 0 μM)	absorption at 337 nm ([compound]/[UreG] 5, Ni 1 μM)	absorption at 337 nm ([compound]/[UreG] 5, Ni 2 μM)	absorption at 337 nm ([compound]/[UreG] 5, Ni 3 μM)	absorption at 337 nm ([compound]/[UreG] 5, Ni 4 μM)	absorption at 337 nm ([compound]/[UreG] 5, Ni 5 μM)	absorption at 337 nm ([compound]/[UreG] 5, Ni 6 μM)	absorption at 337 nm ([compound]/[UreG] 5, Ni 7 μM)	absorption at 337 nm ([compound]/[UreG] 5, Ni 8 μM)	absorption at 337 nm ([compound]/[UreG] 10, Ni 0 μM)	absorption at 337 nm ([compound]/[UreG] 10, Ni 1 μM)	absorption at 337 nm ([compound]/[UreG] 10, Ni 2 μM)	absorption at 337 nm ([compound]/[UreG] 10, Ni 3 μM)	absorption at 337 nm ([compound]/[UreG] 10, Ni 4 μM)	absorption at 337 nm ([compound]/[UreG] 10, Ni 5 μM)	absorption at 337 nm ([compound]/[UreG] 10, Ni 6 μM)	absorption at 337 nm ([compound]/[UreG] 10, Ni 7 μM)	absorption at 337 nm ([compound]/[UreG] 10, Ni 8 μM)
Cc1cccc(N2CCN(C(=O)c3cc(S(=O)(=O)N(C)C)ccc3N3CCCC3)CC2)c1C [cmpd4]	ca. 75%	~30	5.14E-05	0.00539	0.00942	0.01515	0.01614	0.01885	0.02176	0.02335	0.02298	-8.22E-04	0.00376	0.00766	0.00856	0.00995	0.01042	0.01062	0.01073	0.00864
O=C(Cn1c2ccccc2c(=O)c2ccccc21)N/N=C/c1cc([N+](=O)[O-])ccc1N1CCCCCC1 [cmpd8]	–	–	2.14E-04	0.00481	0.0064	0.00838	0.01641	0.0186	0.01908	0.02094	0.0213	0.00131	0.00222	0.00217	0.00973	0.01047	0.01403	0.0146	0.01179	0.01166
